Source: patent EP3492086B1, “PHARMACEUTICAL COMPOSITION COMPRISING ZEBULARINE (1-(BETA-D-RIBOFURANOSYL)-2(1H)-PYRIMIDINONE) FOR USE IN PROMOTING REGENERATION AND WOUND HEALING” (Uniwersytet Gdanski, priority 2017, dated 2019)

What was measured:
[1] = system: ear pinnae of the BALB/c 2-month-old female mice; assay: Ear pinnae hole closure (ear pinnae injury model, 2 mm through-and-through holes); format: in vivo
Experimental: In order to evaluate the regenerative effect of zebularine, through-and-through holes of 2 mm diameter were made in the ear pinnae of the BALB/c 2-month-old female mice using scissor style ear punch. The mice were randomly divided into two groups consisting of six individuals each. The mice of one group were intraperitoneally injected with 7 doses of zebularine dissolved in saline (50 mg/ml), 1000 mg/kg body weight, on the day of injury directly after punching, and 1, 2, 3, 4, 7, 10 days after injury. The second, control group, was administered with saline.
The experiment was repeated 8 times. Collectively, the experiment was performed for 47 zebularine treated and 48 saline (vehiculum) administered control mice. […] The mean ear hole areas determined on the day 42 post injury were 0.53+/-0.3 and 1.77+/-0.48 sq mm for zebularine treated and saline controls, respectively. The results expressed as percentage of wound closure correspond to 83.2% and 43.6% for the zebularine treated and control group, respectively (Figure 2).The timeline of regeneration process is presented in Figure 3. […] The distributions of ear hole areas on the day 42 after injury were plotted as dot diagrams, where each dot represents an individual ear (Figure 4). The diagrams not only show the biological variation in response to injury and zebularine treatment but clearly expose the contrast between the control and zebularine treated groups. […]

[2] = system: laboratory mice; conditions: GM284 topical delivery (US2009/0093528A1); XAV-939 (Bastakoty et al. 2015); 1,4-DPCA (Zhang et al. 2015); cited from earlier work
[3] = system: Cdkn2a, Msx1, Nanog, Sox2, Bdnf, Sox1, Nog, and Myt1l; assay: Expression of pluripotency, developmental and cell cycle genes in the injury/repair area (real-time PCR); format: in vivo; conditions: day 7 after injury; zebularine treated versus control mice; most remarkable for Nanog and Sox2
Excerpt: In order to determine the effect of zebularine on the expression of pluripotency, developmental and cell cycle genes, the transcript levels for a panel of selected genes including Cdkn2a, Msx1, Nanog, Sox2, Bdnf, Sox1, Nog, and Myt1l were examined in the injury/repair area, in zebularine treated and control mice at the day 7, 14, 21 and 42 following injury in addition to unwounded ear pinnae designated as day 0. For the purpose, the ear punched mice were sacrificed at selected time points, the ears were collected on RNAlater reagent (Qiagen), stored at -80 °C until the rings surrounding the holes were excised using a 3 mm biopsy punch, following RNA extraction from thus obtained tissues using RNeasy kit (Qiagen). The levels of selected transcripts were determined for 6 mice (8 ears) for each time point using real-time PCR quantitation and Tbp and Actb as the reference genes. […] The most remarkable changes were found for the pluripotency genes, Nanog and Sox2 (Figure 7).

[4] = system: 5-methylcytosine; assay: Global DNA methylation in the injury/regeneration area (5-mC DNA ELISA); format: in vivo, mice; conditions: day 7 following injury; zebularine treated versus control
Excerpt: DNA methylation in promoter regions is one of key epigenetic mechanisms responsible for gene repression. In order to determine the zebularine demethylating effect on DNA in the regenerating tissues, the content of 5-methylcytosine was compared in the tissues collected from the rings surrounding the ear pinnae holes in the zebularine treated and control animals. For the purpose, the ear punched zebularine treated and control mice were sacrificed at the days 7, 14, 21, and 42 after injury. The ears were collected, and the rings surrounding the holes were excised with a 3 mm biopsy punch, following genomic DNA extraction from thus obtained tissues using DNeasy kit (Qiagen). The levels of 5-methylcytosine were estimated using 5-mC DNA ELISA Kit (ZYMO, D5325) in 100 ng aliquots of genomic DNA.

[5] = system: dorsal skin wounds, mice of the BALB/c strain; assay: Dorsal skin excision model, topical delivery, wound closure; format: in vivo
Experimental: The effect of topically delivered zebularine on wound healing was determined using the dorsal skin excision model. Six 2-month-old female mice of the BALB/c strain were used for the experiment. Prior to the injury, the mice were anaesthetized. The dorsal skin was shaved and disinfected. Two symmetrical full-thickness excisional wounds were made in the dorsum using a biopsy punch of 6 mm diameter. Ten microliter of zebularine suspension (200 mg per 1 ml of saline) was dropped directly onto the wound immediately after wounding and once daily for the next four days. Promptly after zebularine application, the wounds were covered with a transparent dressing, and next, the dressing was fastened with adhesive plaster wrapped around the mouse. An analogical experiment was performed for six mice of control group that were not treated with zebularine. The animal study protocol was approved by the Local Ethics Committee for Animal Experimentation at the University of Science and Technology in Bydgoszcz, Poland (Permit No. 49/2016).
The wounds were photographed on the day of injury (d0) and on the day 2, 4, 7, 9, 11, 14, and 18 after wounding. The wound closure progress was tracked by determining wound area using computer-assisted image analysis. […] Complete wound closure was observed on the day 11 for zebularine treated mice and on the day 18 for the control ones (Figure 13).

[6] = 37°C, pH 7.4 (Cheng et al. 2003); cited from earlier work
[7] = estimated (Ben-Kasus et al. 2005); cited from earlier work
[8] = system: mice; conditions: 400 mg/kg body weight intraperitoneally for 78 consecutive days (Herranz et al. 2006); cited from earlier work

## Nc1ncn([C@@H]2O[C@H](CO)[C@@H](O)[C@H]2O)c(=O)n1 [5-azacytidine, reference compound]
[1]; 0.25 mg/kg body weight i.p., 7 times, day 42, 6 mice, compared with zebularine and saline
  effect on ear hole closure (result in words): did not stimulate ear hole closure

## Oc1nc(-c2ccc(C(F)(F)F)cc2)nc2c1CSCC2 [XAV-939]
[2]
  ear hole closure reported in the literature (result in words): partial ear hole closure induction

## O=C(O)c1c[nH]c2c(ccc3cccnc32)c1=O [1,4-DPCA, 4-oxo-1H-1,10-phenanthroline-3-carboxylic acid]
[2]
  ear hole closure reported in the literature (result in words): partial ear hole closure induction

## CCC(C)(C)C(=O)C(=O)N1CCC[C@H]1c1nnc([C@@H]2CCCN2C(=O)C(=O)C(C)(C)CC)o1 [GM284]
[2]
  ear hole closure reported in the literature (result in words): Ear hole closure

## O=c1ncccn1[C@@H]1O[C@H](CO)[C@@H](O)[C@H]1O [zebularine, 1-(β-D-ribofuranosyl)-2(1H)-pyrimidinone]
[1]; 1000 mg/kg body weight intraperitoneally, 7 doses (day 0, 1, 2, 3, 4, 7, 10), 47 mice, saline control 1.77+/-0.48
  mean ear hole areas determined on the day 42 post injury: 0.53+/-0.3 sq mm
[1]; 1000 mg/kg i.p., 7 doses
  day after injury of maximal ear hole closure: 35 days
[1]; 1000 mg/kg i.p., 7 doses, versus saline control
  day after injury from which significantly better ear hole closure was recorded: 21 days
[1]; day 42 after injury, 1000 mg/kg i.p., 7 doses, control group 43.6%
  percentage of wound closure (ear hole closure area): 83.2%
[1]; representative mouse, 1000 mg/kg i.p., 7 doses (Figure 1)
  time to almost complete closure of the ear pinnae hole: approximately 30 days
[1]; subcutaneous injections, 1000 mg/kg, 7 doses, day 42 (Figure 6)
  effect of subcutaneous delivery on ear pinnae hole closure: statistically significant response but proved less effective than intraperitoneal delivery
[3]
  expression of the selected transcripts in the injury/repair area: Significantly enhanced expression
[4]
  DNA methylation (5-methylcytosine content) in the injury/regeneration area: significant decrease in DNA methylation
[5]; 10 microliter of 200 mg/ml suspension after wounding and once daily for four days, 6 mm wounds
  decrease of the time of wound closure: approximately 7 days
[5]; 10 microliter of 200 mg/ml suspension, five applications, control day 18
  day of complete wound closure: 11 days
[6]
  half-life in water: 21.2 days
[7]
  RNA incorporation relative to DNA incorporation: 7 fold
[8]
  toxic effects in mice: No toxic effects

## CC1=C(/C=C/C(C)=C/C=C/C(C)=C/C(=O)O)C(C)(C)CCC1=O [4-keto RA, 4-keto retinoic acid, reference compound]
[1]; Example 4: i.p., zebularine 1000 mg/kg 7 times, RA or 4-keto RA 16 mg/kg 6 times, followed for 42 days
  ear hole closure (result in words): Partial ear hole closure
